Measurements from PMC2137757 (The Journal of Experimental Medicine, 1964).
Where two headings read alike, the source gives them in different places.

Experiments:
[1] = Survival after a single feeding; conditions: 30 mg, animals invariably succumbed
adrenal cortex [2] = test: Adrenal damage
[3] = system: menadione reductase (EC 1.6.5.2); test: Induction of menadione reductase in tissues; type: in vivo, rat
adrenal cortex [4] = conditions: cited from earlier work
adrenal cortex [5] = test: Induced protection of adrenal against 7,12-DMBA; type: in vivo, rat
adrenal cortex [6] = conditions: single preliminary feeding; cited from earlier work
[7] = Solubility of hydrocarbons in sesame oil; conditions: room temperature; approximately
[8] = system: deoxyribonucleic acid of adrenal; type: in vivo, rat; conditions: Table VII
[9] = system: acid-insoluble residue (DNA) of liver; conditions: 7,12-DMBA 5 mg i.v. at -4 hours; TdRH3 at 0 hours; liver at +20 hours; Fig. 3
[10] = 7,12-DMBA oral 10 mg at -48 hrs
[11] = 7,12-DMBA oral 10 mg at -48 hrs, 7,12-DMBA 5 mg i.v. at -4 hrs

CN(C)c1ccc(C=Cc2ccccc2)cc1 [4-dimethylaminostilbene]
Time to death [1]: ≤ 5 days | Adrenal necrosis (adrenal cortex [2]; feeding, 30 mg): did not induce necrosis

Cc1c2ccccc2c(C)c2c1ccc1ccccc12 [7,12-DMBA, 7,12-Dimethylbenz[a]anthracene]
Hepatic menadione reductase ([3]; 7,12-DMBA 5 mg i.v. at 0 hours, lipide at 24 hours, measured at 48 hours, Fig. 5): 269 per cent of controls | Time of first rise in hepatic menadione reductase ([3]; 7,12-DMBA 5 mg intravenous, Fig. 3): 3 h | Time of first elevation in hepatic menadione reductase ([3]; 7,12-DMBA 5 mg oral, Fig. 3): 8 h | Intravenous amount that itself causes adrenal necrosis (adrenal cortex [4]; intravenous): ≥ 2 mg | Adrenal apoplexy (adrenal cortex [4]; single feeding 30 mg, adult rats): induces adrenal apoplexy in all adult rats | Rats protected (adrenal cortex [5]; 1 mg by intravenous injection on day -1, group of 8): 5 | Adrenal protection (adrenal cortex [5]; 0.5 to 1.5 mg injected intravenously as protector on day -1): no amount was found which induced complete protection | Adrenal protection (adrenal cortex [5]; single feeding 2 mg to 10 mg, 1 day prior to 7,12-DMBA 5 mg i.v.): protected adrenals completely | Adrenal hemorrhage (adrenal cortex [2]; 5 mg given by vein): invariably caused adrenal hemorrhage | Adrenal apoplexy (adrenal cortex [2]; Table I, 7,12-DMBA 30 mg/kg i.v., age 30 days, adrenals 72 hours later, 8 rats): 0 | Adrenal apoplexy (adrenal cortex [2]; Table I, 7,12-DMBA 30 mg/kg i.v., age 35 days, 8 rats): 6/8 | Adrenal apoplexy (adrenal cortex [2]; Table I, 7,12-DMBA 30 mg/kg i.v., age 40 days, 8 rats): 8/8 | Adrenal apoplexy (adrenal cortex [2]; Table I, 7,12-DMBA 30 mg/kg i.v., age 42 days, 8 rats): 8/8 | Adrenal apoplexy (adrenal cortex [2]; Table I, 7,12-DMBA 30 mg/kg i.v., age 45 days, 8 rats): 8/8 | Adrenal apoplexy (adrenal cortex [2]; feeding of 5 mg): failed to induce apoplexy | Protection of adrenal from damage by a large dose of 7,12-DMBA (adrenal cortex [6]): protects | Solubility w/v in sesame oil [7]: ~10 per cent | Tritium content of adrenal, per cent of controls ([8]; 7,12-DMBA 5 mg i.v. at -4 hrs): 40 per cent | Tritium content of adrenal [8, 10]: 0.120 ~clgm | Tritium content of adrenal, per cent of controls [8, 10]: 91 per cent | Tritium content of adrenal [8, 11]: 0.064 ~clgm | Tritium content of adrenal, per cent of controls [8, 11]: 48 per cent | Incorporation of tritium into acid-insoluble residue of liver [9]: 56 per cent of control values
